Like-named read-outs stand apart in the source and are kept apart here.
Assay: In vivo microdialysis pharmacokinetics of LVFX without transporter inhibitors
Design: species or system rat
Conditions: for AUC(0-inf) / Cmax / AUC(0-t) / Tmax / Kp / MRT / half-life: rat; for AUC(0-inf) / Cmax / AUC(0-t) / Tmax / MRT / half-life: iv; for AUC(0-inf) / Cmax / AUC(0-t) / MRT / half-life: 50 mg/kg, mean ± SD; for AUC(0-t): read-out: AUC0–180 (converted); for Kp: intravenous, LVFX 50 mg/kg tail vein, no inhibitor
Procedure: On the day of surgery, rats were anesthetized using inhaled isoflurane via a facemask. The rats were placed in a stereotaxic frame (Gene&I), and the body temperature was maintained with a homoeothermic blanket set at 37°C. A midline incision was made to expose the skull. According to the Paxinos and Watson atlas, two microdialysis intracerebral guide cannulae (Eicom Co.) were implanted into the hippocampus CA1 region (Hp‐CA1 coordinates: AP −4.16 mm; ML −2.2 mm; DV −2.9 mm) and lateral ventricle (LV coordinates: AP −1.4 mm; ML +2.2 mm; DV −3.4 mm). Fixed to the skull using a screw and dental cement. After 3 days of recovery, the rats were anesthetized with isoflurane again. An intravascular probe (TP‐100‐20; 20 mm, Eicom Co.) was implanted into the jugular vein toward the right atrium. After the blood microdialysis probe was positioned within the jugular vein, the pipeline was connected to perfuse with ACD solution (citric acid 3.5 mM; sodium citrate 7.5 mM; dextrose 13.6 mM) at a flow rate of […], and the Hamilton microinjection pump was used for continuous perfusion. After stopping isoflurane inhalation, the rats were allowed to wake up naturally on the homoeothermic blanket. The awake rats were placed in a device that allowed them to move freely. Animals were allowed to recover for an additional 24 h.
All microdialysate concentrations (C m) from the hippocampal ECF and lateral ventricle CSF were converted to the unbound drug concentration (C u) at the target site using the following formula: C u = C m/R dial.
A total of 32 rats were randomly divided into the following groups: • Control group, N = 12: vehicle solution + LVFX (50 mg/kg). • TAR group, N = 5: Tariquidar (8 mg/kg) + LVFX (50 mg/kg). • Ko143 group, N = 5: Ko143 (15 mg/kg) + LVFX (50 mg/kg). • MK571 group, N = 5: MK571 (20 mg/kg) + LVFX (50 mg/kg). • PRO group, N = 5: Probenecid (50 mg/kg) + LVFX (50 mg/kg).
Given that the solvents of intervention drugs were different, the control group was subdivided into four subgroups (n = 3). According to the preparation method of the transporter regulator, an equal volume of solvent was used as the control.
Levofloxacin was freshly dissolved in isotonic saline and administered via tail vein injection. Thirty minutes before LVFX administration, the intervention drugs of each group were injected intraperitoneally. To reduce the possible effect of solvents on BBB or BCSFB permeability of LVFX, we prioritized water as the solvent. However, Tariquidar and Ko143 are insoluble in water, and a cosolvent must be used to prepare agents that animals can tolerate. According to the different physicochemical properties of these four inhibitors, the preparation of each transporter inhibitor solution in this experiment was as follows. • P‐glycoprotein (P‐gp) inhibitor Tariquidar[22]: Tariquidar was freshly dissolved in DMSO to 8 mg/ml and then diluted to 4 mg/ml with a solution containing 10% Tween‐80, 25% PEG300, and 65% sterile water. • Breast cancer resistance protein (BCRP) inhibitor Ko143[23]: Ko143 was freshly dissolved in DMSO to 15 mg/ml and then diluted to 7.5 mg/ml with a solution containing 10% Tween‐80, 25% PEG300, and 65% sterile water. • Multidrug resistance‐associated proteins (MRPs) inhibitor MK571[24]: MK571 sodium salt hydrate was dissolved in 1.25% (w/v) aq sodium hydrogen carbonate (NaHCO3) solution to obtain a concentration of 10 mg/ml. • Organic anion transporters (OATs) inhibitor probenecid[25]: Probenecid was dissolved in NaOH (pH = 9.0–9.2) alkalized physiological saline to obtain a concentration of 25 mg/ml.
The pipelines where the blood and brain probes were installed were perfused at the speed of 2 μl/min with ACD solution and ACSF, respectively. Two brain probes were inserted into guide cannulas of the target site and allowed to equilibrate for 1 h. Subsequently, the rats were treated according to their corresponding groups in the device where they could move freely.

[1] = CSF (lateral ventricle microdialysate), CSF, Group 1: vehicle solution of Tariquidar/Ko143 + LVFX 50 mg/kg, n=3
[2] = CSF (lateral ventricle microdialysate), CSF, Group 2: 1.25% NaHCO3 solution + LVFX 50 mg/kg, n=3
[3] = CSF (lateral ventricle microdialysate), CSF, Group 4: LVFX 50 mg/kg alone, n=3
[4] = CSF (lateral ventricle microdialysate), pH 9, CSF, Group 3: physiological saline alkalinized with NaOH (pH 9.0–9.2) + LVFX 50 mg/kg, n=3
[5] = CSF, CSF, Group 1: vehicle solution of Tariquidar/Ko143 + LVFX 50 mg/kg, n=3
[6] = CSF, CSF, Group 2: 1.25% NaHCO3 solution + LVFX 50 mg/kg, n=3
[7] = CSF, CSF, Group 4: LVFX 50 mg/kg alone, n=3
[8] = CSF, pH 9, CSF, Group 3: physiological saline alkalinized with NaOH (pH 9.0–9.2) + LVFX 50 mg/kg, n=3
[9] = blood (microdialysate, unbound), blood, Group 1: vehicle solution of Tariquidar/Ko143 + LVFX 50 mg/kg, n=3
[10] = blood (microdialysate, unbound), blood, Group 2: 1.25% NaHCO3 solution + LVFX 50 mg/kg, n=3
[11] = blood (microdialysate, unbound), blood, Group 4: LVFX 50 mg/kg alone, n=3
[12] = blood (microdialysate, unbound), pH 9, blood, Group 3: physiological saline alkalinized with NaOH (pH 9.0–9.2) + LVFX 50 mg/kg, n=3
[13] = blood, blood, control group, vehicle + LVFX 50 mg/kg tail vein, N=12
[14] = brain ECF, brain ECF, Group 1: vehicle solution of Tariquidar/Ko143 + LVFX 50 mg/kg, n=3
[15] = brain ECF, brain ECF, Group 2: 1.25% NaHCO3 solution + LVFX 50 mg/kg, n=3
[16] = brain ECF, brain ECF, Group 4: LVFX 50 mg/kg alone, n=3
[17] = brain ECF, pH 9, brain ECF, Group 3: physiological saline alkalinized with NaOH (pH 9.0–9.2) + LVFX 50 mg/kg, n=3
[18] = hippocampal brain ECF (microdialysate, unbound), hippocampal brain ECF, control group, vehicle + LVFX 50 mg/kg tail vein, N=12
[19] = lateral ventricle CSF (microdialysate, unbound), lateral ventricle CSF, control group, vehicle + LVFX 50 mg/kg tail vein, N=12

## C[C@H]1COc2c(N3CCN(C)CC3)c(F)cc3c(=O)c(C(=O)O)cn1c23 [LVFX, Levofloxacin]
CSF, Group 2: 1.25% NaHCO3 solution + LVFX 50 mg/kg, n=3
  T max: 15 min
CSF, Group 4: LVFX 50 mg/kg alone, n=3
  T max: 15 min
blood, Group 2: 1.25% NaHCO3 solution + LVFX 50 mg/kg, n=3
  T max: 15 min
blood, control group, vehicle + LVFX 50 mg/kg tail vein, N=12
  T max: 15 min
Brain ECF, Group 2: 1.25% NaHCO3 solution + LVFX 50 mg/kg, n=3
  T max: 15 min
Brain ECF, Group 4: LVFX 50 mg/kg alone, n=3
  T max: 15 min
[1]
  AUC(0-inf): 4080 ng·h/mL
  Cmax: 3540 ± 150 ng/mL
  AUC(0-t): 3810 ng·h/mL
  Tmax: 15 min
[2]
  AUC(0-inf): 4490 ng·h/mL
  Cmax: 3860 ± 320 ng/mL
  AUC(0-t): 4140 ng·h/mL
[3]
  Cmax: 3480 ± 370 ng/mL
  AUC(0-t): 4330 ng·h/mL
[4]
  AUC(0-inf): 4950 ng·h/mL
  Cmax: 3700 ± 140 ng/mL
  AUC(0-t): 4490 ng·h/mL
CSF (lateral ventricle microdialysate), CSF, Group 3: physiological saline alkalinized with NaOH (pH 9.0–9.2) + LVFX 50 mg/kg, n=3
  Tmax: 15 min
CSF / blood (unbound, microdialysate), AUCu,CSF/AUCu,blood, control group, N=12, read-out: K p,uu,CSF
  Kp: 0.412 ± 0.024
[5]
  MRT: 1.18 h
  half-life: 38 ± 11.9 min
[6]
  MRT: 1.23 h
  half-life: 50.6 ± 8.78 min
[7]
  AUC(0-inf): 4680 ng·h/mL
  MRT: 1.28 h
  half-life: 42.2 ± 5.6 min
[8]
  MRT: 1.36 h
  half-life: 45.8 ± 19.7 min
[9]
  AUC(0-inf): 11000 ng·h/mL
  MRT: 1.07 h
  half-life: 40.5 ± 5.68 min
  AUC(0-t): 10300 ng·h/mL
[10]
  AUC(0-inf): 11700 ng·h/mL
  MRT: 1.23 h
  half-life: 50.5 ± 9.53 min
  AUC(0-t): 10700 ng·h/mL
[11]
  AUC(0-inf): 11700 ng·h/mL
  MRT: 1.44 h
  half-life: 60.6 ± 11.2 min
  AUC(0-t): 10200 ng·h/mL
  Tmax: 15 min
[12]
  AUC(0-inf): 10100 ng·h/mL
  MRT: 1.16 h
  half-life: 45.3 ± 6.27 min
  AUC(0-t): 9340 ng·h/mL
blood, blood, Group 1: vehicle solution of Tariquidar/Ko143 + LVFX 50 mg/kg, n=3
  Cmax: 10400 ± 1040 ng/mL
blood, blood, Group 2: 1.25% NaHCO3 solution + LVFX 50 mg/kg, n=3
  Cmax: 10700 ± 320 ng/mL
blood, blood, Group 4: LVFX 50 mg/kg alone, n=3
  Cmax: 9970 ± 590 ng/mL
[13]
  AUC(0-inf): 11100 ng·h/mL
  Cmax: 10200 ± 700 ng/mL
  MRT: 1.22 h
  half-life: 49.2 ± 10.6 min
  AUC(0-t): 10200 ng·h/mL
blood, pH 9, blood, Group 3: physiological saline alkalinized with NaOH (pH 9.0–9.2) + LVFX 50 mg/kg, n=3
  Cmax: 9780 ± 390 ng/mL
Brain ECF / blood, AUCu,ECF/AUCu,blood, control group, N=12, read-out: K p,uu,ECF
  Kp: 0.34 ± 0.017
[14]
  AUC(0-inf): 3730 ng·h/mL
  Cmax: 2920 ± 520 ng/mL
  MRT: 1.24 h
  half-life: 39.8 ± 14.3 min
  AUC(0-t): 3480 ng·h/mL
[15]
  AUC(0-inf): 3600 ng·h/mL
  Cmax: 2720 ± 150 ng/mL
  MRT: 1.4 h
  half-life: 53.4 ± 9.24 min
  AUC(0-t): 3240 ng·h/mL
[16]
  AUC(0-inf): 3940 ng·h/mL
  Cmax: 3050 ± 760 ng/mL
  MRT: 1.35 h
  half-life: 49 ± 17.9 min
  AUC(0-t): 3600 ng·h/mL
[17]
  AUC(0-inf): 3820 ng·h/mL
  Cmax: 2540 ± 170 ng/mL
  MRT: 1.4 h
  half-life: 49.8 ± 20.7 min
  AUC(0-t): 3470 ng·h/mL
[18]
  AUC(0-inf): 3770 ng·h/mL
  Cmax: 2710 ± 300 ng/mL
  MRT: 1.35 h
  half-life: 48 ± 14.7 min
  AUC(0-t): 3450 ng·h/mL
  Tmax: 15 min
blood, Group 1: vehicle solution of Tariquidar/Ko143 + LVFX 50 mg/kg, n=3
  Tmax: 15 min
blood, Group 3: physiological saline alkalinized with NaOH (pH 9.0–9.2) + LVFX 50 mg/kg, n=3
  Tmax: 15 min
Brain ECF, Group 1: vehicle solution of Tariquidar/Ko143 + LVFX 50 mg/kg, n=3
  Tmax: 15 min
Brain ECF, Group 3: physiological saline alkalinized with NaOH (pH 9.0–9.2) + LVFX 50 mg/kg, n=3
  Tmax: 15 min
[19]
  AUC(0-inf): 4550 ng·h/mL
  Cmax: 3650 ± 270 ng/mL
  MRT: 1.26 h
  half-life: 44.1 ± 11.8 min
  AUC(0-t): 4190 ng·h/mL
  Tmax: 15 min
With or without treatment with transporter inhibitors
  difference in LVFX concentration (and AUC value) between brain ECF and CSF: < 3 fold

Reference: article PMC9804084, “Multiple drug transporters contribute to the brain transfer of levofloxacin” (CNS Neuroscience & Therapeutics, 2022)
